The text below walks through data of patent publication US20230173070A1, “METHODS AND SYSTEMS FOR ENHANCING DELIVERY OF THERAPEUTIC AGENTS TO BIOFILMS USING LOW BOILING POINT PHASE CHANGE CONTRAST AGENTS” (The University of North Carolina at Chapel Hill, priority 2020, published 2023).

Where a name gives a salt, the structure may show the parent alone.

The subject of assay [1] is MRSA strain LAC biofilms. Nature of the assay: MRSA biofilm assay with antibiotics plus PCCA and ultrasound (US-PCCA), survivors enumerated by plating. Format: cell-based, S. aureus. To be noted: for enhancement of tobramycin efficacy in the presence of PCCAs / increase in killing of biofilm-associated cells by US-PCCA: 30 s ultrasound; for enhancement of tobramycin efficacy in the presence of PCCAs: 20% duty cycle, FIG. 2B; for increase in killing of biofilm-associated cells by US-PCCA: vs antibiotic alone, 10% duty cycle, FIG. 2C. As for the experimental part:
Next, we tested the ability of 30 second (s) US-PCCA treatment to potentiate tobramycin efficacy. […] We hypothesized that US-PCCA might improve tobramycin penetration into biofilms and increase its efficacy. Mature biofilms were washed and transferred to a custom-built temperature-controlled 37° C. water bath alignment setup (FIG. 1B). Tobramycin and PCCAs were added and ultrasound applied at a range of rarefactional pressures (300-1200 kPa).
(§1) MRSA strain LAC biofilms were cultured overnight in brain-heart infusion (BHI) media in 12-well (FIGS. 2A and 2B) or 24-well (FIG. 2C) tissue culture treated plates. Biofilms were washed and treated with antibiotics. Where indicated, plates were transferred to a custom-built temperature-controlled 37° C. water bath alignment setup. PCCA were added and 30 s ultrasound exposure was applied at indicated pressures and 20% duty cycle (FIG. 2B) or 10% duty cycle (FIG. 2C). After 24 hours, biofilms were washed, sonicated for disruption and surviving cells were enumerated by serial dilution plating. Survivors were presented as log10 CFU/ml. The averages of n=3 biologically independent samples are shown. The error bars represent the standard deviation. Statistical significance was determined using a one-way analysis of variance (ANOVA) with Dunnett's (FIG. 2A) or Sidak's multiple comparison test (FIGS. 2B and 2C). **, ***, **** denotes P<0.005, P<0.0005, P<0.0001, respectively. LEV, levofloxacin; GENT, gentamicin; TOB, tobramycin; MUP, mupirocin; VAN, vancomycin; LIN, linezolid, RIF, 10 μg/ml rifampicin; ns, not significant; US-PCCA, ultrasound-stimulated phase change contrast agents.
MRSA strain LAC biofilms were cultured overnight in brain-heart infusion (BHI) media in 24-well tissue culture treated plates. Biofilms were washed and treated with antibiotics and transferred to a custom-built temperature-controlled 37° C. water bath alignment setup. PCCAs were added and 30 s ultrasound exposure was applied at 300 kPa or 600 kPa (FIG. 3B and 3C) and 10% duty cycle. After 24 h, biofilms were washed, sonicated for disruption and surviving cells were enumerated by serial dilution plating (FIG. 3A) or stained with crystal violet (FIG. 3B). The averages of n=6 biologically independent samples are shown. The error bars represent the standard deviation. Statistical significance was determined using a one-way analysis of variance (ANOVA) with Dunnett's multiple comparison test (a) or multiple unpaired t-test (2-tailed) (FIG. 3C). *, **, **** denotes P<0.05, P<0.005, P<0.0001, respectively. TOB, 58 μg/ml tobramycin; RL, 30 μg/ml rhamnolipids; DAP, 100 μg/ml daptomycin; LIN, 15 μg/ml linezolid; RIF, 10 μg/ml rifampicin; ADEP, 5 μg/ml acyldepsipeptide; ns, not significant; US-PCCA, ultrasound-stimulated phase change contrast agents.
Biofilm assays were performed using the USA300 MRSA strain LAC. It is a highly characterized community-acquired MRSA (CA-MRSA) strain isolated in 2002 from an abscess of an inmate in Los Angeles County jail in California^67. LAC was cultured overnight (18 h) in brain heart infusion (BHI) media (Oxoid) in biological triplicates.

Assay [2] relates to MRSA biofilms (USA300 LAC). The experiment in a line: MRSA biofilm assay, antibiotics alone, survivors enumerated by plating. Type of assay: cell-based, S. aureus. To be noted: antibiotic alone at clinically achievable concentration (Cmax), 24 hours of drug treatment of mature biofilm, FIG. 2A. As to the method:
Antibiotics were chosen based on clinical relevance or previously reported anti-biofilm efficacy in vitro. Mature MRSA biofilms (USA300 LAC) were cultured for 24 hours in tissue culture treated plates before the addition of antibiotics. Following 24 hours of drug treatment, biofilms were washed, and survivors were enumerated by plating.
as §1
Biofilm assays were performed using the USA300 MRSA strain LAC. It is a highly characterized community-acquired MRSA (CA-MRSA) strain isolated in 2002 from an abscess of an inmate in Los Angeles County jail in California^67. LAC was cultured overnight (18 h) in brain heart infusion (BHI) media (Oxoid) in biological triplicates. Each culture was diluted 1:150 in fresh media and 2 or 3 ml was added to the wells of 24-well or 12-well tissue culture treated plates (Costar), respectively. Biofilms were covered with Breathe-Easier sealing strips (Sigma) and incubated at 37° C. for 24 h. Biofilms were carefully washed twice with PBS and fresh BHI media containing antibiotics was added. Biofilms were covered and incubated at 37° C. for 24 h. Biofilms were carefully washed twice with PBS before dispersal in a sonicating water bath (5 min) and vigorous pipetting. Surviving cells were enumerated by serial dilution and plating. […] For daptomycin activity, the media was supplemented with 50 mg/L of Ca^2+ ions. Where indicated tobramycin was supplemented with 30 μg/ml rhamnolipids^22 (50/50 mix of mono- and di-rhamnolipids, Sigma). Where indicated biofilms were treated with PCCA and ultrasound. For crystal violet staining, biofilms were carefully washed twice with PBS, and dried in a 65° C. oven for 1 h. Biofilms were stained with 1 ml 0.4% crystal violet for 5 min, and washed 3× with PBS. Wells were photographed, and stain was solubilized with 2 ml 5% acetic acid and absorbance measured at 570 nm.

With `CCCCCC/C=C\CCCCCCCC(=O)O` [Palmitoleic acid, palmitoleic acid], the “vancomycin killing of biofilms” value in assay [1] (50 μg/ml vancomycin, 30 μg/ml palmitoleic acid, with US-PCCA (30 s, 1 MHz, 600 kPa, 10% duty cycle), FIG. 12) was “drastically improves vancomycin killing”. In the case of `NC[C@H]1O[C@H](O[C@H]2[C@H](O)[C@@H](O[C@H]3O[C@H](CO)[C@@H](O)[C@H](N)[C@H]3O)[C@H](N)C[C@@H]2N)[C@H](N)C[C@@H]1O` [Tobramycin, tobramycin], the “reduction in surviving biofilm cells” value in assay [2] is “significant reduction”. For the same compound, the “enhancement of tobramycin efficacy in the presence of PCCAs” value in assay [1] (300 kPa), in assay [1] (600 kPa) and in assay [1] (1200 kPa) was “significantly enhanced” in each case. For `C[C@H]1COc2c(N3CCN(C)CC3)c(F)cc3c(=O)c(C(=O)O)cn1c23` [levofloxacin], the “reduction in surviving biofilm cells” value in assay [2] is reported as “no efficacy”. Still for that read-out and setting: the entry for `CC(=O)NC[C@H]1CN(c2ccc(N3CCOCC3)c(F)c2)C(=O)O1` [linezolid] is “significant reduction”.

On to `C/C(=C\C(=O)OCCCCCCCCC(=O)O)C[C@@H]1OC[C@H](C[C@@H]2O[C@H]2[C@@H](C)[C@H](C)O)[C@@H](O)[C@H]1O` [mupirocin], for which the “reduction in surviving biofilm cells” value in assay [2] is “significant reduction”. In addition, the “increase in killing of biofilm-associated cells by US-PCCA” value in assay [1] worked out at 41%.

Regarding `CN[C@H](CC(C)C)C(=O)N[C@H]1C(=O)N[C@@H](CC(N)=O)C(=O)N[C@H]2C(=O)N[C@H]3C(=O)N[C@H](C(=O)N[C@H](C(=O)O)c4cc(O)cc(O)c4-c4cc3ccc4O)[C@H](O)c3ccc(c(Cl)c3)Oc3cc2cc(c3O[C@@H]2O[C@H](CO)[C@@H](O)[C@H](O)[C@H]2O[C@H]2C[C@](C)(N)[C@H](O)[C@H](C)O2)Oc2ccc(cc2Cl)[C@H]1O` [vancomycin, vancomycin hydrochloride], the “reduction in surviving biofilm cells” value in assay [2] is “significant reduction”. The “increase in killing of biofilm-associated cells by US-PCCA” value in assay [1] is on record as 93%.

On to gentamicin, for which, in assay [2], the “reduction in surviving biofilm cells” value is on record as “no efficacy”.
